The structures appear in SMILES notation.

Drawing on US20240101570A1 (AMGEN INC., priority 2020, published 2024), this text covers IC50 for 28 molecules.

One experiment has as its system HCT116 WT cells. Kind of experiment: HCT116 WT cell proliferation / viability (CellTiter-Glo, 6 days). The settings on record: Homo sapiens, HCT-116, 144 h, HCT116 WT cells, 6 days, CellTiter-Glo; read-out: HCT-116 WT IC50. It counts as cell-based. In short, it runs like this:
(§1)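 IC50 values derive from sigmoidal dose-response fits, some with Hill slope fixed at −1 and top constrained to 100%, others from 4-parameter logistic models. They reflect CellTiter-Glo viability after 6 days of compound exposure at up to 10 or 50 μM.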

The test system of a further experiment is HCT116 MTAP null cells. Kind of experiment: HCT116 MTAP null cell proliferation / viability (CellTiter-Glo, 6 days). Format: cell-based. To be noted: HCT116-MTAP null, 144 h, HCT116 MTAP null cells, 6 days, CellTiter-Glo; read-out: HCT-116 MTAP null IC50. In short, it runs like this: as §1

For `CCN(Cc1ccc(C(F)(F)F)cn1)C(=O)c1ccc2nc(N)c3c(c2c1)CO[C@@H]3C` [Example 360, (3R)-4-amino-N-ethyl-3-methyl-N-((5-(trifluoromethyl)-2-pyridinyl)methyl)-1,3-dihydrofuro[3,4-c]quinoline-8-carboxamide], the IC50 in the experiment on HCT116 WT cells was 3.07 µM; with HCT116 MTAP null cells, 0.053 µM.

Regarding `CCN(Cc1ccc(C(F)(F)F)nc1)C(=O)c1ccc2nc(N)c3c(c2c1)COC3` [Example 703, 4-amino-N-ethyl-N-((6-(trifluoromethyl)-3-pyridinyl)methyl)-1,3-dihydrofuro[3,4-c]quinoline-8-carboxamide], the IC50 in the experiment on HCT116 WT cells was determined as 8.15 µM; in the experiment with HCT116 MTAP null cells, 0.337 µM.

In the case of `CN(Cc1ccc(C(F)(F)F)cn1)C(=O)c1ccc2nc(N)c3c(c2c1)COC3(C)C` [Example 932, 4-amino-N,3,3-trimethyl-N-((5-(trifluoromethyl)pyridin-2-yl)methyl)-1,3-dihydrofuro[3,4-c]quinoline-8-carboxamide], the half-inhibitory concentration (IC50) in the experiment with HCT116 WT cells turned out to be 1.7 µM; in the experiment on HCT116 MTAP null cells it was 0.86 µM.

With `Cn1cc(N(Cc2ccc(C(F)(F)F)cn2)C(=O)c2cc3c4c(c(N)nc3cn2)COC4)cn1` [Example 885, 4-amino-N-(1-methyl-1H-pyrazol-4-yl)-N-((5-(trifluoromethyl)-2-pyridinyl)methyl)-1,3-dihydrofuro[3,4-c][1,7]naphthyridine-8-carboxamide], the results for the IC50 in the experiment with HCT116 WT cells and with HCT116 MTAP null cells were 0.596 µM and 0.025 µM, respectively.

With `CC1OCc2c1c(N)nc1ccc(C(=O)N(Cc3ccc(C(F)(F)F)cn3)C3CC34CCCC4)cc21` (centres unmarked) [Example 909, 4-amino-3-methyl-N-(spiro[2.4]heptan-1-yl)-N-((5-(trifluoromethyl)pyridin-2-yl)methyl)-1,3-dihydrofuro[3,4-c]quinoline-8-carboxamide], the IC50 in the experiment on HCT116 WT cells was 8 µM; in the experiment with HCT116 MTAP null cells, 0.215 µM.

For the molecule `CN(Cc1ccc(C2=CCOCC2)cn1)C(=O)c1ccc2nc(N)c3c(c2c1)COC3` [Example 429, 4-amino-N-((5-(3,6-dihydro-2H-pyran-4-yl)-2-pyridinyl)methyl)-N-methyl-1,3-dihydrofuro[3,4-c]quinoline-8-carboxamide], the IC50 with HCT116 WT cells came out at 31.8 µM; in the experiment with HCT116 MTAP null cells, 1.26 µM.

With `CC(C)N(Cc1ccc(C(F)(F)F)cn1)C(=O)c1ccc2nc(N)c3c(c2c1)COC3` [Example 451, 4-amino-N-(2-propanyl)-N-((5-(trifluoromethyl)-2-pyridinyl)methyl)-1,3-dihydrofuro[3,4-c]quinoline-8-carboxamide], the concentration for half-maximal inhibition (IC50) with HCT116 WT cells was 4.38 µM; in the experiment on HCT116 MTAP null cells it was 0.032 µM.

For `CCN(C(=O)c1ccc2nc(N)c3c(c2c1)COC3)[C@H](C)c1ccc(C#N)cc1` (single isomer, unassigned) [Example 835], the figures for the IC50 in the experiment with HCT116 WT cells and with HCT116 MTAP null cells were 3.76 µM and 0.126 µM, respectively.

Turning to `Nc1nc2ccc(C(=O)N(Cc3ccc(Br)cn3)C3CC3)cc2c2c1COC2` [Example 455, 4-amino-N-((5-bromo-2-pyridinyl)methyl)-N-cyclopropyl-1,3-dihydrofuro[3,4-c]quinoline-8-carboxamide], the IC50 in the experiment with HCT116 WT cells amounted to 4.78 µM; in the experiment on HCT116 MTAP null cells it was 0.148 µM.

As for `CCN(Cc1ccc(C(F)(F)F)cn1)C(=O)c1ccc2nc(N)c3c(C)noc3c2c1` [Example 547, 4-amino-N-ethyl-3-methyl-N-((5-(trifluoromethyl)-2-pyridinyl)methyl)[1,2]oxazolo[4,5-c]quinoline-8-carboxamide], the IC50 in the experiment on HCT116 WT cells came out at 24.5 µM; with HCT116 MTAP null cells it was 0.668 µM.

In the case of `CC(C)N(Cc1ccc(C#N)cn1)C(=O)c1cc2c3c(c(N)nc2cc1Cl)COC3` [Example 392, 4-amino-7-chloro-N-((5-cyano-2-pyridinyl)methyl)-N-(2-propanyl)-1,3-dihydrofuro[3,4-c]quinoline-8-carboxamide], the values for the IC50 with HCT116 WT cells and with HCT116 MTAP null cells were 1.54 µM and 0.057 µM, respectively.

As for `CC(C)CN(Cc1ccc(C(F)(F)F)cn1)C(=O)c1cnc2nc(N)c3c(c2c1)COC3` [Example 612, 4-amino-N-(2-methylpropyl)-N-((5-(trifluoromethyl)-2-pyridinyl)methyl)-1,3-dihydrofuro[3,4-c][1,8]naphthyridine-8-carboxamide], the IC50 in the experiment with HCT116 WT cells was found to be 3.06 µM; in the experiment on HCT116 MTAP null cells, 0.176 µM.

Take `COCC(C)(C)N(Cc1ccc(Br)nn1)C(=O)c1cc2c3c(c(N)nc2cn1)COC3` [Example 645, 4-amino-N-((6-bromo-3-pyridazinyl)methyl)-N-(1-methoxy-2-methyl-2-propanyl)-1,3-dihydrofuro[3,4-c][1,7]naphthyridine-8-carboxamide]: the IC50 in the experiment with HCT116 WT cells is greater than 50 µM; with HCT116 MTAP null cells, no less than 50 µM.

Consider `COC[C@@H](C)N(Cc1ccc(Cl)nn1)C(=O)c1ccc2nc(N)c3c(c2c1)COC3` [Example 305, 4-amino-N-((6-chloro-3-pyridazinyl)methyl)-N-((2R)-1-methoxy-2-propanyl)-1,3-dihydrofuro[3,4-c]quinoline-8-carboxamide], for which the values for the IC50 in the experiment with HCT116 WT cells and in the experiment on HCT116 MTAP null cells were 0.861 µM and 0.027 µM, respectively.

On to `C[C@H](c1ncccn1)N(Cc1ccc(C(F)(F)F)cn1)C(=O)c1ccc2nc(N)c3c(c2c1)OCC3` [Example 888, 4-amino-N-[(1R)-1-pyrimidin-2-ylethyl]-N-[[5-(trifluoromethyl)-2-pyridyl]methyl]-2,3-dihydrofuro[3,2-c]quinoline-8-carboxamide], for which the half-inhibitory concentration (IC50) is 0.231 µM with HCT116 WT cells and 0.021 µM in the experiment with HCT116 MTAP null cells.

On to `CC1(CN(Cc2ccc(C(F)(F)F)cn2)C(=O)c2ccc3nc(N)c4c(c3c2)COC4(C)C)CC1` [Example 341, 4-amino-3,3-dimethyl-N-((1-methylcyclopropyl)methyl)-N-((5-(trifluoromethyl)-2-pyridinyl)methyl)-1,3-dihydrofuro[3,4-c]quinoline-8-carboxamide], for which the IC50 amounted to 3.79 µM in the experiment with HCT116 WT cells and 0.212 µM in the experiment on HCT116 MTAP null cells.

For the molecule `Cn1cc(N(Cc2ccc(C(F)(F)F)cn2)C(=O)c2cc3c4c(c(N)nc3cc2Cl)COC4)cn1` [Example 715, 4-amino-7-chloro-N-(1-methyl-1H-pyrazol-4-yl)-N-((5-(trifluoromethyl)-2-pyridinyl)methyl)-1,3-dihydrofuro[3,4-c]quinoline-8-carboxamide], the IC50 with HCT116 WT cells was 0.07 µM; in the experiment on HCT116 MTAP null cells, 0.006 µM.

With `COc1nc(CN(C(=O)c2cc3c4c(c(N)nc3cn2)COC4)C(C)C)ccc1Cl` [Example 685, 4-amino-N-((5-chloro-6-methoxy-2-pyridinyl)methyl)-N-(2-propanyl)-1,3-dihydrofuro[3,4-c][1,7]naphthyridine-8-carboxamide], the IC50 with HCT116 WT cells is greater than 10 µM; in the experiment on HCT116 MTAP null cells, 0.201 µM.

For the molecule `C[C@@H]1OCc2c1c(N)nc1cnc(C(=O)N(C)Cc3ccc(C4CC4)cn3)cc21` [Example 414, (3S)-4-amino-N-((5-cyclopropyl-2-pyridinyl)methyl)-N,3-dimethyl-1,3-dihydrofuro[3,4-c][1,7]naphthyridine-8-carboxamide], the IC50 is greater than 50 µM in the experiment with HCT116 WT cells and 5.87 µM in the experiment with HCT116 MTAP null cells.

Regarding `CN(Cc1ccc(C(F)(F)F)cc1)C(=O)c1cc2c3c(c(N)nc2cn1)COC3` [Example 692, 4-amino-N-methyl-N-(4-(trifluoromethyl)benzyl)-1,3-dihydrofuro[3,4-c][1,7]naphthyridine-8-carboxamide], the IC50 is greater than 10 µM in the experiment on HCT116 WT cells and 0.449 µM in the experiment with HCT116 MTAP null cells.

As to `CC1OCc2c1c(N)nc1ccc(C(=O)N(Cc3ccc(C#N)cn3)CC3CCOCC3)cc21` (centres unmarked) [Example 896, 4-amino-N-((5-cyanopyridin-2-yl)methyl)-3-methyl-N-((tetrahydro-2H-pyran-4-yl)methyl)-1,3-dihydrofuro[3,4-c]quinoline-8-carboxamide], the IC50 was determined as 1.8 µM in the experiment with HCT116 WT cells and 0.088 µM in the experiment with HCT116 MTAP null cells.

For `CCN(Cc1ccc(Cl)cn1)C(=O)c1ccc2nc(N)c3c(c2c1)COC3` [Example 701, 4-amino-N-((5-chloro-2-pyridinyl)methyl)-N-ethyl-1,3-dihydrofuro[3,4-c]quinoline-8-carboxamide], the IC50 was found to be 7.25 µM in the experiment with HCT116 WT cells and 0.193 µM with HCT116 MTAP null cells.

With `C[C@H](CF)N(Cc1ccc(C#N)cn1)C(=O)c1cc2c3c(c(N)nc2cn1)COC3` (single isomer, unassigned) [Example 820], the IC50 in the experiment with HCT116 WT cells was greater than 10 µM; with HCT116 MTAP null cells it was 7.07 µM.

As to `C[C@@H]1OCc2c1c(N)nc1cnc(C(=O)N(Cc3ccc(C(F)(F)F)nn3)C3CCC3)cc21` (single isomer, unassigned) [Example 829], the IC50 was greater than 50 µM in the experiment on HCT116 WT cells and 7.79 µM in the experiment on HCT116 MTAP null cells.

Regarding `C[C@H](c1ccc(C(F)(F)F)nn1)N(C)C(=O)c1ccc2nc(N)c3c(c2c1)CO[C@@H]3C` (single isomer, unassigned) [Example 856], the IC50 turned out to be 8.48 µM in the experiment with HCT116 WT cells and 0.087 µM with HCT116 MTAP null cells.

Turning to `COC[C@@H](C)N(Cc1ccc(Cl)nn1)C(=O)c1ccc2nc(N)c3c(c2c1)CO[C@@H]3C` [Example 307, (3R)-4-amino-N-((6-chloro-3-pyridazinyl)methyl)-N-((2R)-1-methoxy-2-propanyl)-3-methyl-1,3-dihydrofuro[3,4-c]quinoline-8-carboxamide], the values for the IC50 in the experiment on HCT116 WT cells and with HCT116 MTAP null cells were 0.471 µM and 0.018 µM, respectively.

Regarding `COC[C@@H](C)N(Cc1ccc(C(F)(F)F)cn1)C(=O)c1cc2c3c(c(N)nc2cn1)COC3` [Example 728, 4-amino-N-((2R)-1-methoxy-2-propanyl)-N-((5-(trifluoromethyl)-2-pyridinyl)methyl)-1,3-dihydrofuro[3,4-c][1,7]naphthyridine-8-carboxamide], the figures for the IC50 with HCT116 WT cells and in the experiment with HCT116 MTAP null cells were 0.663 µM and 0.047 µM, respectively.

Consider `CC(C)N(C(=O)c1ccc2nc(N)c3c(c2c1)COC3)[C@@H](C)c1ccc(C(F)(F)F)cn1` (single isomer, unassigned) [Example 831], for which the results for the half-maximal inhibitory concentration (IC50) in the experiment with HCT116 WT cells and in the experiment with HCT116 MTAP null cells were 31.7 µM and 2.57 µM, respectively.
